Experimental data published in patent US20240300945A1, “CLY SERIES COMPOUND, PREPARATION METHOD THEREFOR AND USE THEREOF IN PREPARATION OF DRUGS” (NANJING WELLBEST PHARMACEUTICAL CO., LTD, priority 2021, published 2024).
Marks after values point to notes of the source that are not given here.

Key:
skin melanocytes = assay: Chloasma model of guinea pig: pathomorphological observation of skin melanocytes; format: in vivo; design: Average gray level (melanocyte depth): scale not given here; conditions: 0.25% cream once a day, 30 days
Excerpt: According to the body weight, they were randomly divided into the model control group (applied cream matrix), blank control group (applied cream matrix), CLY-1 treatment group (applied 0.25% CLY-1 cream on the skin), CLY-2 treatment group (0.25% CLY-2 cream on the skin), CLY-3 treatment group (0.25% CLY-3 cream on the skin), CLY-4 treatment group (0.25% CLY-4 cream on the skin), CLY-5 treatment group (0.25% CLY-5 cream on the skin) CLY-8 treatment group (0.25% CLY-8 cream on the skin), CLY-11 treatment group (0.25% CLY-11 cream on the skin), CLY-19 treatment group (0.25% CLY-19 cream on the skin), CLY-36 treatment group (0.25% CLY-36 cream on the skin), CLY-39 treatment group (0.25% CLY-39 cream on the skin), positive treatment group (0.25% arbutin cream on the skin), 6 in each group. In addition to the blank control group, all guinea pigs in the other groups were injected with 20 mg/ml progesterone injection (7.5 mg/kg) into the muscle at the root of the hind leg, once a day, for 30 consecutive days to establish the chloasma model. […] After modeling, the guinea pigs in the model control group, blank control group, each CLY series treatment group, and positive treatment group were treated with corresponding cream on the back for intervention, once a day, for 30 consecutive days.
Took 1 piece of spare skin tissue from each of all guinea pigs, about 2 cm×1 cm, 10% paraformaldehyde fixation, pathological tissue detection, immunohistochemical staining, observation of melanocyte staining and number, and judgment of positive cells according to the literature: none, 0 point<15%, 0.5 points<30%, 1 point; >30%, 2 points. Observed 5 visual fields in each slice, found out the positive target with brown reaction in the cytoplasm of skin epidermis and accessory epithelial cells, and used BX50F4 Beihang pathological image analysis system for quantitative analysis to obtain the average area, the ratio of target area to statistical field area (areal density), the ratio of target number to statistical field area (number density), the average gray level, the average optical density and the integrated optical density of each guinea pig's 5 visual fields of melanin positive target.
SPSS16.0 software was used for statistics. The measurement data were expressed by mean±standard deviation (x±s). The comparison between multiple groups was performed by one-way ANOVA, and the comparison between groups was performed by t-test. P<0.05 was statistically significant.

rabbit ear acne model [1] = assay: Rabbit ear acne model: macroscopic observation and histological grading; format: in vivo, New Zealand rabbits; conditions: right ear, 10 per group; for number of rabbits with acne histological grading 2+: Grade 2; for number of rabbits with acne histological grading —: Level 0, without acne; for number of rabbits with acne histological grading 1+: Level 1; for number of rabbits with acne histological grading 3+: Level 3
rabbit ear acne model [2] = assay: Rabbit ear acne model: epidermal thickness, hair follicle area, sebaceous gland diameter; format: in vivo, New Zealand rabbits; conditions: rabbit right ear
[3] = external use (0.25% CLY cream; positive: Differin)
[4] = intravenous injection 1 mg/kg·d

SMILES: CNC1CCCC(N(C(=O)c2ccc(-n3nnc4cccnc43)cc2)c2ncccc2Cl)C1 (stereo not drawn) [CLY-3]
- Area density of melanocytes (skin melanocytes): 0.008 ± 0.003
- Area of melanocytes (skin melanocytes): 436.32 ± 79.12 um2
- Average gray level (melanocyte depth) (skin melanocytes): 0.52 ± 0.08
- Average optical density (melanocyte depth) (skin melanocytes): 11.42 ± 1.32
- Integrated optical density (melanocyte depth) (skin melanocytes): 95.36 ± 9.86
- Number density of melanocytes (skin melanocytes): 2.82 ± 1.25
- Number of melanocytes (skin melanocytes): 2.13 ± 0.61
- number of rabbits with acne histological grading 2+ (rabbit ear acne model [1]; [3]): 2
- number of rabbits with acne histological grading 2+ (rabbit ear acne model [1]; [4]): 2
- number of rabbits with acne histological grading — (rabbit ear acne model [1]; [3]): 4
- number of rabbits with acne histological grading — (rabbit ear acne model [1]; [4]): 6
- number of rabbits with acne histological grading 1+ (rabbit ear acne model [1]; [3]): 4
- number of rabbits with acne histological grading 1+ (rabbit ear acne model [1]; [4]): 2
- number of rabbits with acne histological grading 3+ (rabbit ear acne model [1]; [3]): 0
- number of rabbits with acne histological grading 3+ (rabbit ear acne model [1]; [4]): 0
- epidermal thickness (rabbit ear acne model [2]; [3]): 0.2385 ± 0.0198 mm
- hair follicle area (rabbit ear acne model [2]; [3]): 0.2923 ± 0.0987* mm^2
- sebaceous gland diameter (rabbit ear acne model [2]; [3]): 0.0837 ± 0.0412 mm
- epidermal thickness (rabbit ear acne model [2]; [4]): 0.2316 ± 0.0196 mm
- hair follicle area (rabbit ear acne model [2]; [4]): 0.2287 ± 0.0883* mm^2
- sebaceous gland diameter (rabbit ear acne model [2]; [4]): 0.0575 ± 0.0354 mm
